What was measured:
[1] = system: HCT116 P53 −/−; experiment: In vitro antiproliferative activity, HCT116 P53 −/− cells; assay type: cell-based; settings: Homo sapiens, HCT-116, Table 1
Method: (§1) Substituted β-carboline compounds 4 to 38 were tested for antiproliferative activity against HCT116 colon cancer cells and HPAC, Mia-PaCa2 and Panc-1 pancreatic cancer cell lines. Table 1 lists the IC50 values for the substituted β-carbolines.

[2] = system: HCT116 colon cancer cells; experiment: In vitro antiproliferative activity, HCT116 colon cancer cells; assay type: cell-based; settings: Homo sapiens, HCT-116, Table 1
Method: as §1

[3] = system: MDA-MB-468 breast cancer xenografts; experiment: Antitumor activity in nude mice bearing MDA-MB-468 breast cancer xenografts; assay type: in vivo; settings: 40 mg/kg i.p., after 18 days
Method: FIGS. 2A-2B illustrate antitumor activity on tumor mass (FIG. 2A) and on body weight (FIG. 2B) of compound 19 treatment in nude mice bearing human MDA-MB-468 breast cancer xenografts.
(§2) Nude mice bearing MDA-MB-468 breast cancer (FIGS. 2A-2B) and Panc-1 pancreatic cancer (FIGS. 3A-3B) xenografts were administered 40 mg/kg i.p. of compound 19 and tumor mass and body weights were measured daily for 18 days compared to a PEG-ethanol-saline control.

[4] = system: Panc-1 pancreatic cancer cell line; experiment: In vitro antiproliferative activity, Panc-1 pancreatic cancer cell line; assay type: cell-based, human; settings: Homo sapiens, Table 1
Method: (§3) Substituted β-carbolines and analog compounds 39 to 57 were tested for antiproliferative activity against HPAC, Mia-PaCa2 and Panc-1 pancreatic cancer cell lines and MCF-7 and MDA-MB-468 breast cancer cell lines. Table 2 lists the IC50 values for the substituted β-carbolines and analogs thereof.

[5] = system: HPAC pancreatic cancer cell line; experiment: In vitro antiproliferative activity, HPAC pancreatic cancer cell line; assay type: cell-based; settings: Homo sapiens, Table 1
Method: as §1, §3

[6] = system: Mia-PaCa2 pancreatic cancer cell line; experiment: In vitro antiproliferative activity, Mia-PaCa2 pancreatic cancer cell line; assay type: cell-based; settings: Homo sapiens, MIA PaCa-2, Table 1
Method: as §1, §3

[7] = system: DU145 prostate cancer xenografts; experiment: Antitumor activity in nude mice bearing DU145 prostate cancer xenografts; assay type: in vivo
Method: FIGS. 4A-4B illustrate antitumor activity on tumor growth (FIG. 4A) and on body weight (FIG. 4B) of compound 19 treatment in nude mice bearing human DUI145 prostate cancer xenografts.
Nude mice bearing DU145 prostate cancer xenografts were administered i.p. 10 mg/kg, 20 mg/kg or control of compound 19 and tumor growth (FIG. 4A) and body weight (FIG. 4B) was monitored over 25 days. […]

[8] = system: Panc-1 pancreatic cancer xenografts; experiment: Antitumor activity in nude mice bearing Panc-1 pancreatic cancer xenografts; assay type: in vivo; settings: 40 mg/kg i.p., after 18 days
Method: FIGS. 3A-3B illustrate antitumor activity on tumor mass (FIG. 3A) and on body weight (FIG. 3B) of compound 19 treatment in nude mice bearing Panc-1 human pancreatic cancer xenografts.
as §2

[9] = system: cultured normal human fibroblasts; experiment: Flow cytometry, cell cycle kinetics of cultured normal human fibroblasts; assay type: cell-based; settings: 15 mM in 0.1% DMSO; for selectivity between cancer cells and normal (fibroblast) cells: flow cytometry cell cycle kinetics
Method: (§4) Flow cytometry experiments were performed to show the effects of Compound 19, and anticancer drugs Adriamycin or Camptothecin treatment on the cell cycle kinetics of various human cells (FIGS. 8A-8I and 9A-9I), MCF-7 breast cancer cells (FIGS. 5A-5F), A549 lung cancer cells (FIGS. 7A-7I), LNCaP (FIGS. 10A-10I), DU145 (FIGS. 11A-11I) and PC-3 (FIGS. 12A-12I) prostate cancer cells, as well as cultured normal human fibroblasts (FIGS. 6A-6F). The compound or drugs were applied at a concentration of 15 mM in 0.1% DMSO as the vehicle, and cells incubated for the time point indicated in hours (hr). The control samples were treated with vehicle without compound or drug. Red histograms represent cells in the G1/G0 phase (histogram to the left) and cells in the G2/M phases (histogram to the right). The interval between the G1/G) and G2/M histograms is the S-phase of the cell cycle. The subG1/GO histograms (cyan colored) represent cells undergoing apoptosis (programmed cell death).

[10] = system: HCT116, MCF-7, A549, LNCaP, DU145 and PC-3 cancer cells; experiment: Flow cytometry, cell cycle kinetics of cancer cells; assay type: cell-based, human; settings: 15 mM in 0.1% DMSO
Method: as §4

SMILES | IC50 [1] [µM] | IC50 [2] [µM] | IC50 [4] [nM] | IC50 [5] [nM] | IC50 [6] [nM] | cell cycle arrest mechanism in cancer cells [10] | selectivity between cancer cells and normal (fibroblast) cells [9] | also measured
COc1ccc2c(c1)[nH]c1c(-c3ccnc4ccccc34)nccc12 [Compound 10, 7-Methoxy-1-quinolin-4-yl-9H-β-carboline] | 18.7 | 7 |  |  |  |  |  | 
COc1ccc2[nH]c3c(-c4cccc5ccccc45)nccc3c2c1 [Compound 19, 6-Methoxy-1-naphthalen-1-yl-9H-β-carboline] |  | 0.13 | 290 | 290 | 200 | G2/M arrest mechanism(s) |  | body weight [3]: nor had body weight decreased; tumor mass ([3]; vs PEG-ethanol-saline control): had not increased; body weight ([7]; 10 mg/kg and 20 mg/kg i.p., over 25 days): remained fairly constant; percent of tumor growth ([7]; 10 mg/kg i.p., at about day 7): less than control; rate of tumor growth ([7]; 10 mg/kg i.p., over the 25 days): about equivalent to that of control; tumor growth ([7]; 20 mg/kg i.p., over 25 days): significant decrease in tumor growth compared to 10 mg/kg and control; body weight [8]: nor had body weight decreased; tumor mass ([8]; vs PEG-ethanol-saline control): had not increased; perturbation of the cell cycle of normal human cells ([9]; normal human fibroblasts): no significant perturbation
COc1ccc2[nH]c3c(-c4ccnc5ccccc45)nccc3c2c1 [Compound 11, 6-Methoxy-1-quinolin-4-yl-9H-β-carboline] | 0.46 | 0.51 | 580 | 560 | 490 |  |  | 
COc1ccc2[nH]c3c(-c4ccoc4)nccc3c2c1 [Compound 9, 1-Furan-3-yl-6-methoxy-9H-β-carboline] | 53.7 | 60.9 |  | 45100 |  |  |  | 
CC[C@@]1(O)C(=O)OCc2c1cc1n(c2=O)Cc2cc3ccccc3nc2-1 [Camptothecin] |  |  |  |  |  | primarily G1 phase arrest | did not show selectivity | 
COc1cccc2c1C(=O)c1c(O)c3c(c(O)c1C2=O)C[C@@](O)(C(=O)CO)C[C@@H]3O[C@H]1C[C@H](N)[C@H](O)[C@H](C)O1 [Adriamycin] |  |  |  |  |  | primarily G1 phase arrest | did not show selectivity | 

— patent US8927570B2, “1-naphthyl-or 1-dihydroacenaphthenyl-pyrido[B]indoles and uses thereof in treating cancers” (priority 2009, dated 2015)
